Several values for one entry are separate records, joined by “and”; a condition that tells them apart may be missing. Equal values may be shown once.
Columns and labels:
ERBB4/ERBB4 = biological target: T1, ERBB4/ERBB4 (Homo sapiens, UniProt Q15303); experiment: NRG1 dose-response in ERBB4/ERBB4 dimerization assay with co-administration of EF-1; type: cell-based
T1 construct: host or cells: U2OS (osteosarcoma cells), PathHunter engineered line
Protocol: U2OS ERBB4/ERBB4 dimerization cells were seeded at a density of 5 × 10^4 cells/well in 100 µL Cell Plating 0 Reagent, in white 96-well plates (PerkinElmer, 6005680) and incubated for 24 h at 37 °C, 5% CO2. […] Next, 110 µL PathHunter Flash Detection Reagent was added to each well and incubated at RT for 1 h after which the luminescence signal was measured using the Luminoskan Ascent (Thermo Fisher Scientific). Dose-response curves of the compounds were performed in 2-fold (0.0625–32 µM). The same experimental set-up was used for the U2OS ERBB2/ERBB4, U2OS ERBB2/ERBB3 and U2OS ERBB1/ERBB1 dimerization cell lines. […]
(§1) (b) DRC showing t he effect of NRG1 (full line with full circle) on the […]
(§2) 1x10-6 M NRG1; n=5 biological replicates for NRG1 + EF -1 10 µM for all concentrations of NRG1, except […]
(§3) concentrations of NRG1, except n=2 for 3x10-7 M and 1x10-6 M NRG1). All data are presented as mean ± SD. Source data are provided as a Source Data file . CPD, compound; DRC; dose response curve; FC, fold change; F-NRG1, fluorescent ly labeled NRG1; M, molar concentration; NRG1, neuregulin-1; Veh, […]

[1] = tested on: Akt phosphorylation (pAkt/Akt); experiment: Western blot pAkt/Akt in iAMs; type: cell-based, rat; settings: for pAkt/Akt, relative to vehicle of the same time point: iAMs, single replicates; for phosphorylation of Akt in iAMs (in words): NRG1 10 nM or EF-1 32 µM
Protocol: Hearts of the aforementioned transgenic mice were removed immediately after the animals had been killed. Cells and heart tissue were collected in RIPA lysis buffer (Thermo Fisher Scientific, 89900) supplemented with protease inhibitors (Merck, 11836153001) and phosphatase inhibitors (Merck, 4906845001) and the lysates were centrifuged at 14,000 × g for 10 min. The supernatants were collected, supplemented with sample buffer, and incubated at 95 °C for 5 min. Protein quantification was done with Pierce^TM BCA Protein Assay Kits (Thermo Fisher, 23227) according to the manufacturer’s instructions. Equal protein amounts of clarified lysates (20 µg) were subsequently separated by sodium dodecyl sulfate (SDS) polyacrylamide gel electrophoresis (165 V, 400 mA, 60 min) and transferred onto polyvinylidene fluoride membranes by electroblotting (100 V, 400 mA, 90 min). Next, the membranes were incubated for 1 h with Li-Cor blocking buffer (Li-Cor, 927-60001) at RT in Tris-buffered saline (TBS), supplemented with 0.1% Tween (BIO-RAD, 1706531). Next, primary antibodies were added (see below and Table 1a) in Li-Cor blocking buffer supplemented with 0.1% Tween, and the membranes were incubated overnight at 4 °C on a shaker. Following washing with TBS-0.1% Tween, the membranes were incubated for 1 h at RT with corresponding IRDye-conjugated secondary antibodies (See below and Table 1b) in Li-Cor blocking buffer supplemented with […] and 0.1% Tween. The membrane was visualized with the Odessey imaging system.

ERBB4 receptor = biological target: T2, ERBB4 receptor (Homo sapiens, UniProt Q15303); experiment: Fluorescence-based competition binding assay with F-NRG1 (flow cytometry) on U2OS ERBB4/ERBB4 cells; settings: for Fluorescence-based competition assay with NRG1 and EF-1 (normalized signal): individual replicates
T2 construct: host or cells: U2OS (osteosarcoma cells), PathHunter engineered line
Protocol: NRG1 was dissolved in PBS at a concentration of 1 mg/mL and labeled with Alexa Fluor 488 using the Alexa Fluor 488 microscale protein labeling kit (Thermo Fisher Scientific, A30006). A Bio-gel P-4 (Bio-Rad, 1504124) fine resin suspended in PBS and a dye:protein molar ratio of 5 was used to purify the labeled NRG1 according to the manufacturer’s instructions. Fluorescent labeling was evaluated by performing a dose-response experiment using F-NRG1 (1–1000 nM) on the U2OS ERBB4/ERBB4 dimerization cell line. Next, the same cell line was used to perform a competition binding assay with F-NRG1 using flow cytometry. Cells were plated in transparent U-bottom 96-well plates (Greiner Bio-One, M9436) at 5 × 10^5 cells/mL in 50 μL ice-cold buffer (PBS with 0.1% bovine serum albumin (BSA; Sigma-Aldrich, A7906) and 0.05% sodium azide (Sigma-Aldrich, S2002)). Next, cells were centrifuged at 17,968 × g for 4 min at RT and the supernatants were discarded. The cell pellets were washed with 50 μL ice-cold buffer by gently pipetting up and down. Centrifugation and washing were repeated, and the supernatants were discarded. For the competition assay between NRG1 and F-NRG1, cells were treated with NRG1 (1–100 nM) and F-NRG1 (30 nM). […] After gentle mixing of each sample, the plate was incubated for 1 h at 4 °C on a microplate shaker. Next, the plate was centrifuged at 17,968 × g for 4 min at RT and the supernatants were discarded. The cells were then washed with 100 μL ice-cold buffer, pelleted by centrifugation and washed again. The supernatants were discarded and 100 μL ice-cold buffer was added to the cell pellets and pipetted up and down to generate single-cell suspensions. These suspensions were transferred to 5-mL polystyrene round-bottom tubes, kept on ice, and exposed to minimum light until flow cytometric analysis (BD Accuri C6, BD Biosciences). Unstained cells were used to set the parameters of the flow cytometer.
Supplementary Figure 3. Receptor binding assay. (a) Fluorescence-based competition assay between […]
The Y-axis represents the […]
percentage of specific binding of F-NRG1, the x-axis represents the molar concentration of unlabeled […]
as §1, §2, §3

iAMs = experiment: EdU proliferation assay in proliferating iAMs; type: cell-based, rat; settings: for EdU-positive nuclei compared to the vehicle group (in words): EF-1 32 µM or NRG1 0.1 µM, 24 h; for In vitro EdU-positive cell count: individual replicates
Protocol: EdU proliferation assay was performed using the Click-iT^TM EdU Cell Proliferation Kit for Imaging (ThermoFisher Scientific, C10337) following the protocol. Proliferating iAMs were seeded at a density of 10^5 cells/well in proliferating medium in 24-well plates and incubated overnight. […] Afterwards, the cell culture media were then replaced with 10 µM EdU in proliferating medium and incubated for 24 h at 37 °C. Next, iAMs were fixed with 4% PFA for 30 min at 4 °C. Cells were washed thrice with PBS, permeabilized by incubation with 0.1% Triton X-100 for 10 min at RT and counterstained with DAPI. Images were obtained by fluorescence microscopy (Celena S).

T2 sequence (Q15303 26-1308): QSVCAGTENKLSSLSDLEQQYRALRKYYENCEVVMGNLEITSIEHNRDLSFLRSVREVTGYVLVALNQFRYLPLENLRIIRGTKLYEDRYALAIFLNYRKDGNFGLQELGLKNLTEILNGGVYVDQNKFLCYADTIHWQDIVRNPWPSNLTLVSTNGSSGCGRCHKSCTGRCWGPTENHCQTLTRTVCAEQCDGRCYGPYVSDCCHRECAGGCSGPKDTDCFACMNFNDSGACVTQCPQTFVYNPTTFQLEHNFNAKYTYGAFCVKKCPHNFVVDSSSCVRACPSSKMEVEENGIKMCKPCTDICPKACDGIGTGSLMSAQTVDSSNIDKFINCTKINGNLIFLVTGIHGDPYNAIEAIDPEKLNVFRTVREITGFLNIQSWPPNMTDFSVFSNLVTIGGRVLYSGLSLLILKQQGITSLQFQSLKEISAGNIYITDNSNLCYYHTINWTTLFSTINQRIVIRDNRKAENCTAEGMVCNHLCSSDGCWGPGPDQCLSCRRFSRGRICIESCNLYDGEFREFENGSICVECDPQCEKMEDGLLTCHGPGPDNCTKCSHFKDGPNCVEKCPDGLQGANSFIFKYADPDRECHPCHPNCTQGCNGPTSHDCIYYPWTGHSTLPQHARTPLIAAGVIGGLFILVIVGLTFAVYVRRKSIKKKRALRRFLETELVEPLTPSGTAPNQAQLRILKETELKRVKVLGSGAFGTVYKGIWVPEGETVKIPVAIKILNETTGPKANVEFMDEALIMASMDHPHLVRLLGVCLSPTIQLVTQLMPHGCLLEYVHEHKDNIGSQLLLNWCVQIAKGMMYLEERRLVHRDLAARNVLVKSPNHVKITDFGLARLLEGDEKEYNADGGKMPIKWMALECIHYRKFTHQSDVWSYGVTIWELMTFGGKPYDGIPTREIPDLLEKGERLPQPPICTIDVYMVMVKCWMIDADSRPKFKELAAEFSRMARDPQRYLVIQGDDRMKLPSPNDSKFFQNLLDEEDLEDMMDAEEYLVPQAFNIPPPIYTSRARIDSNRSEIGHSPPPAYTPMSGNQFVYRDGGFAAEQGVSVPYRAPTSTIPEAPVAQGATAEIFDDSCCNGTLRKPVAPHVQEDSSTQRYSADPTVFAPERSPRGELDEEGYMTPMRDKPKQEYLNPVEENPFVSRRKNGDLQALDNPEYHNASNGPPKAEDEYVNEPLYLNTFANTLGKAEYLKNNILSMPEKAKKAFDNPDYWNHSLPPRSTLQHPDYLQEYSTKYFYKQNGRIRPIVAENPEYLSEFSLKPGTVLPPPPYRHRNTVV
T2 sequence (Q15303 26-1308): as above
T1 sequence (Q15303 26-1308): as above
T1 sequence (Q15303 26-1308): as above

Compound: O=C(NC1CC1)C(Sc1nc2ccccc2c(=O)n1C1CCCC1)c1ccccc1 (stereo not drawn) [EF-1]
- Chemiluminescence-based competition assay with NRG1 and EF-1, signal (ERBB4/ERBB4; EF-1 1 µM, NRG1 1e-11 M): 0
- Chemiluminescence-based competition assay with NRG1 and EF-1, signal (ERBB4/ERBB4; EF-1 1 µM, NRG1 3e-7 M): 96.5132 and 159.12 and 135.867 and 151.14
- Chemiluminescence-based competition assay with NRG1 and EF-1, signal (ERBB4/ERBB4; EF-1 1 µM, NRG1 1e-6 M): 151.834 and 150.068 and 166.317
- Chemiluminescence-based competition assay with NRG1 and EF-1, signal (ERBB4/ERBB4; EF-1 10 µM, NRG1 1e-11 M): 0
- Chemiluminescence-based competition assay with NRG1 and EF-1, signal (ERBB4/ERBB4; EF-1 10 µM, NRG1 3e-7 M): 204.858 and 319.881 and 318.093 and 238.507
- Chemiluminescence-based competition assay with NRG1 and EF-1, signal (ERBB4/ERBB4; EF-1 10 µM, NRG1 1e-6 M): 299.545
- potentiation of NRG1-induced ERBB4 homodimerization (ERBB4/ERBB4; EF-1 32 µM): 299.5%
- Chemiluminescence-based competition assay with NRG1 and EF-1, signal (ERBB4/ERBB4; EF-1 32 µM, NRG1 1e-11 M): 0
- Chemiluminescence-based competition assay with NRG1 and EF-1, signal (ERBB4/ERBB4; EF-1 32 µM, NRG1 1e-7 M): 179.706 and 213.306 and 260.377 and 233.656 and 250.186
- Chemiluminescence-based competition assay with NRG1 and EF-1, signal (ERBB4/ERBB4; EF-1 32 µM, NRG1 3e-7 M): 277.077 and 253.156
- Chemiluminescence-based competition assay with NRG1 and EF-1, signal (ERBB4/ERBB4; EF-1 32 µM, NRG1 1e-6 M): 257.842 and 279.551
- time of peak Akt phosphorylation ([1]; EF-1): 2 h
- pAkt/Akt, relative to vehicle of the same time point ([1]; EF-1 32 µM, 0 minutes): 0.748 and 0.7404 and 0.672 and 0.9718
- pAkt/Akt, relative to vehicle of the same time point ([1]; EF-1 32 µM, 15 minutes): 0.8783 and 0.9705 and 0.9844 and 0.887
- pAkt/Akt, relative to vehicle of the same time point ([1]; EF-1 32 µM, 60 minutes): 1.284 and 1.335 and 1.4576 and 1.506
- pAkt/Akt, relative to vehicle of the same time point ([1]; EF-1 32 µM, 120 minutes): 2.136 and 1.473 and 2.15 and 1.815
- pAkt/Akt, relative to vehicle of the same time point ([1]; EF-1 32 µM, 240 minutes): 2.021 and 1.657 and 2.184 and 2.136
- phosphorylation of Akt in iAMs (in words) [1]: time-dependent phosphorylation of Akt
- competition with F-NRG1 binding (in words) (ERBB4 receptor; EF-1 0.1–100 μM, 30 nM F-NRG1): did not reduce binding of F-NRG1
- Fluorescence-based competition assay with NRG1 and EF-1 (normalized signal) (ERBB4 receptor; concentration 100 pM): 100
- Fluorescence-based competition assay with NRG1 and EF-1 (normalized signal) (ERBB4 receptor; concentration 1e-7 M): 100 and 98 and 104
- Fluorescence-based competition assay with NRG1 and EF-1 (normalized signal) (ERBB4 receptor; concentration 1e-6 M): 102 and 93 and 105
- Fluorescence-based competition assay with NRG1 and EF-1 (normalized signal) (ERBB4 receptor; concentration 1e-5 M): 98 (2×) and 92
- Fluorescence-based competition assay with NRG1 and EF-1 (normalized signal) (ERBB4 receptor; concentration 0.0001 M): 94 (2×) and 95
- EdU-positive nuclei compared to the vehicle group (in words) (iAMs): significant decrease in EdU-positive nuclei
- In vitro EdU-positive cell count (iAMs): 0.7127 and 0.7822 and 0.8185 and 0.7982 and 0.7621

Compound: neuregulin-1 [NRG1]
- Chemiluminescence-based competition assay with NRG1 and EF-1, signal (ERBB4/ERBB4; NRG1 1e-11 M, no EF-1): 0
- Chemiluminescence-based competition assay with NRG1 and EF-1, signal (ERBB4/ERBB4; NRG1 1e-7 M, no EF-1): 101.055 and 98.9454 and 97.307 and 102.693 and 100 and 86.6131 and 109.42
- Chemiluminescence-based competition assay with NRG1 and EF-1, signal (ERBB4/ERBB4; NRG1 3e-7 M, no EF-1): 95.7195 and 99.6882 and 104.291 and 93.5081 and 90.5392 and 120.599 and 107.787
- Chemiluminescence-based competition assay with NRG1 and EF-1, signal (ERBB4/ERBB4; NRG1 1e-6 M, no EF-1): 99.5216 and 99.741 and 109.693 and 98.1524
- phosphorylation of Akt in iAMs (in words) [1]: significant increase in phosphorylated Akt levels after already 15 minutes
- pAkt/Akt, relative to vehicle of the same time point ([1]; NRG1 10 nM, 0 minutes): 1.052 and 0.8332 and 0.8199
- pAkt/Akt, relative to vehicle of the same time point ([1]; NRG1 10 nM, 15 minutes): 5.096 and 6.809 and 6.931
- pAkt/Akt, relative to vehicle of the same time point ([1]; NRG1 10 nM, 60 minutes): 4.363 and 4.094 and 3.405
- pAkt/Akt, relative to vehicle of the same time point ([1]; NRG1 10 nM, 120 minutes): 2.7652 and 3.7648 and 2.637
- pAkt/Akt, relative to vehicle of the same time point ([1]; NRG1 10 nM, 240 minutes): 2.317 and 2.06
- IC50 (ERBB4 receptor; 30 nM F-NRG1, U2OS ERBB4/ERBB4 cells, read-out: IC50, reduction of binding of fluorescent NRG1 (F-NRG1) to the ERBB4 receptor): 32 nM
- Fluorescence-based competition assay with NRG1 and EF-1 (normalized signal) (ERBB4 receptor; concentration 100 pM): 100
- Fluorescence-based competition assay with NRG1 and EF-1 (normalized signal) (ERBB4 receptor; concentration 1e-9 M): 68.5222 and 84.1596 and 93.8458 and 74.5974 and 128.088 and 100
- Fluorescence-based competition assay with NRG1 and EF-1 (normalized signal) (ERBB4 receptor; concentration 3e-9 M): 80.2455 and 83.5978 and 102.302 and 89.9396 and 83.9805 and 87.652
- Fluorescence-based competition assay with NRG1 and EF-1 (normalized signal) (ERBB4 receptor; concentration 1e-8 M): 67.9682 and 69.1706 and 85.6667 and 81.6967
- Fluorescence-based competition assay with NRG1 and EF-1 (normalized signal) (ERBB4 receptor; concentration 3e-8 M): 77.0259 and 43.4293 and 100.206 and 81.3756 and 87.2588 and 82.6252 and 67.1018 and 62.6829 and 44.3344 and 108.803
- Fluorescence-based competition assay with NRG1 and EF-1 (normalized signal) (ERBB4 receptor; concentration 5e-8 M): 65.1587 and 61.7658 and 51.2875 and 66.8315
- Fluorescence-based competition assay with NRG1 and EF-1 (normalized signal) (ERBB4 receptor; concentration 7.5e-8 M): 7.1162 and 78.7156 and 54.3916 and 66.0513 and 10.1361 and 60.285 and -8.7833 and 64.1512
- Fluorescence-based competition assay with NRG1 and EF-1 (normalized signal) (ERBB4 receptor; concentration 9e-8 M): 47.1877 and 5.376 and 43.6793
- Fluorescence-based competition assay with NRG1 and EF-1 (normalized signal) (ERBB4 receptor; concentration 1e-7 M): 0
- EdU-positive nuclei compared to the vehicle group (in words) (iAMs): significant decrease in EdU-positive nuclei
- In vitro EdU-positive cell count (iAMs): 0.7207 and 0.8932 and 0.8227 and 0.7581 and 0.7231
